Reference: US20080146555A1, “Uses of Kinase Inhibitors and Compositions Thereof” (GPC Biotech, Inc, priority 2004, published 2008)
Where a name gives a salt, the structure may show the parent alone. Read-outs that look alike come from different tables or passages of the source.

Legend:
[1] = tested on: A129 cp80; test: SRB cytotoxicity, cisplatin resistant cells; assay type: cell-based, human; conditions: for IC50: Homo sapiens, 72 h, SRB
[2] = tested on: cells; test: Apoptosis detection (TUNEL staining, PARP cleavage); assay type: cell-based; conditions: 72 hours at 5× of the IC50 concentration
Method: In addition, PARP cleavage was also observed. Similarly, cells incubated with B16 are 90% TUNEL positive. Such assays can be used for apoptosis detection in any cells in contact with the subject compounds.

[3] = biological target: T1, Fes (Homo sapiens, UniProt P07332); test: Fes kinase assay; assay type: biochemical
T1 construct: purchased Upstate 14-473
Method: • 1. 2.5× Reaction Buffer: 50 mM MOPS, pH 7.0, 2.5 mM EDTA. • 2. Poly(Glu4-Tyr) (4:1): Prepare a 1 mg/ml stock in sterile distilled water. Add 2.5 μl per assay point for a final concentration of 0.1 mg/ml. • 3. Enzyme Dilution Buffer (EDB): 20 mM MOPS, pH 7.0, 1 mM EDTA, 5% glycerol, 0.01% Brij-35, 0.1% β-mercaptoethanol, 1 mg/ml BSA. • 4. Fes/Fps, active: Dilute to 4-40 ng/μl with EDB. Use 2.5 μl per assay. • 5. Magnesium/ATP Cocktail (Catalog #20-113): 75 mM MgCl2 and 500 μM ATP in 20 mM MOPS, pH 7.2, 25 mM β-glycerol phosphate, 5 mM EGTA, 1 mM sodium orthovanadate, 1 mM dithiothreitol. • 6. [γ-^32P]ATP: Stock 1 mCi/100 μl (3000 Ci/mmol, obtained from PerkinElmer, Catalog #LU002A). Make 10 μl aliquots (100 μCi/vial). Before starting the assay, dilute the Magnesium/ATP Cocktail 1:1 with sterile, distilled water. Then dilute an aliquot of [γ-^32P]ATP to 1 μCi/μl with 90 μl of the diluted Magnesium/ATP Cocktail. Use 10 μl per assay point for a final ATP concentration of 100 μM per assay point.
• 1. Add 10 μl of 2.5× Reaction Buffer per assay. • 3. Add 2.5 μl of Fes/Fps, active (10-100 ng). • 4. Add 10 μl of the diluted [γ-^32P]ATP mixture. • 5. Incubate for 10 minutes at 30° C. • 6. Spot 20 μl onto the center of a 2 cm×2 cm […]. • 7. Wash the assay squares three times for 5 minutes with 0.75% phosphoric acid. • 8. Wash the assay squares once for 5 minutes with acetone. • 9. Transfer the assay squares to vials and add 5 ml scintillation cocktail. • 10. Read in scintillation counter. Compare cpm of enzyme samples to cpm of control samples.

[4] = tested on: HCT-116 cells; test: Calcein AM viability assay, HCT-116; assay type: cell-based; conditions: Homo sapiens
Summary of the method: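 Cells (HCT-116 1,000, IMR90 4,000 per well) adhered overnight, then received 7 doses from 0 to 250 nM for 72 h at 37 °C. Viability read as calcein fluorescence after 75 min with Calcein AM; IC50 values, with protein-adjusted values also obtained in HCT-116.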

[5] = read-out: FES Inhibition (IC50)
[6] = HCT-116, non-protein adjusted, Table 4, read-out: HCT-116 viability IC50
[7] = HCT-116, text b600, read-out: HCT-116 protein-adjusted viability IC50
[8] = HCT-116, text b600, read-out: HCT-116 viability IC50

T1 sequence (P07332 whole entry): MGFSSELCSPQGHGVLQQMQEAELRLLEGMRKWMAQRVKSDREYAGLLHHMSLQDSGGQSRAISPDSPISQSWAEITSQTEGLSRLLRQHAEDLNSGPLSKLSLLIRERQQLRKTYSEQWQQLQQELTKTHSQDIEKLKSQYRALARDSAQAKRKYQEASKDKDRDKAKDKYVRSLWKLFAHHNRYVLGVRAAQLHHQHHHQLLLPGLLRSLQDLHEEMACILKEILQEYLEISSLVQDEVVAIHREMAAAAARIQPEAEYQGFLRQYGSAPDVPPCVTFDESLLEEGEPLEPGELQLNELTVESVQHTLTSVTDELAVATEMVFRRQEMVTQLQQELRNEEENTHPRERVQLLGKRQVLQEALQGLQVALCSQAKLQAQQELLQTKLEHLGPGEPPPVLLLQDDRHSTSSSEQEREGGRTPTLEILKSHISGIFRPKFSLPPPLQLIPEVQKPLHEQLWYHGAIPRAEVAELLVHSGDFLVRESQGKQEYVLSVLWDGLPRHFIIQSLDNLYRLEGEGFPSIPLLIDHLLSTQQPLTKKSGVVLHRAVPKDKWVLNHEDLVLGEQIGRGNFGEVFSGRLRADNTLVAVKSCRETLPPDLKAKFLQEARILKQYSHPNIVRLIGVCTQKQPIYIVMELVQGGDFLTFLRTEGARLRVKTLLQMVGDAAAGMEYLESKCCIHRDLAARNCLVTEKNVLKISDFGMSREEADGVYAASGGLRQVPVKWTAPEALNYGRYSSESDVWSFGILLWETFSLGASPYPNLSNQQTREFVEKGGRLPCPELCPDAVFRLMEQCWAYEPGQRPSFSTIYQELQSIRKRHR

With `COCCN1CCN(Cc2ccc(-c3n[nH]c4c3C(=O)c3c(NC(=O)NN5CCOCC5)cccc3-4)cc2)CC1` [Compound B16, N-[3-(4-{[4-(2-methoxyethyl)piperazinyl]methyl}phenyl)-4-oxoindeno[2,3-d]pyrazol-5-yl](morpholin-4-ylamino)carboxamide dihydrochloride] the “RR (relative resistance) A129 cp80 vs A129” value [1] was 0.5, the IC50 [1] was 4.7 nM and the TUNEL positive cells [2] was 90%. For the same molecule, the IC50 ([3]; kinase panel, read-out: Fes IC50) was under 100 nM, the IC50 [3, 5] was under 100 nM and the IC50 [4, 6] was under 10 nM. It also gave an IC50 [4, 7] of under 500 nM and an IC50 [4, 8] of under 10 nM.

`CC(C)N1CCN(C(=O)COc2ccc(-c3n[nH]c4c3C(=O)c3c(NC(=O)NN5CCOCC5)cccc3-4)cc2)CC1` [Compound A37] was tested, and the “RR (relative resistance) A129 cp80 vs A129” value [1] was 0.7, the IC50 [1] was 4 nM and the PARP cleavage [2] was “observed”. For the same molecule, the TUNEL positive cells [2] was “about 60%”, the IC50 [3, 5] was under 100 nM and the IC50 [4, 6] was under 100 nM. It also gave an IC50 [4, 7] of under 500 nM and an IC50 [4, 8] of under 50 nM.
